We go through 31 compounds from US9656955B2, “Pyrrolidine derivatives, pharmaceutical compositions containing them, and their use in therapy” (AbbVie Deutschland GmbH & Co. KG, priority 2013, dated 2017).

The target in one assay is human GlyT1c transporter (Homo sapiens (Human), UniProt P48067). The assay can be described thus: Radioligand binding assays using recombinant CHO cell membranes expressing human GlyT1.
Chain of human GlyT1c transporter (P48067 whole entry): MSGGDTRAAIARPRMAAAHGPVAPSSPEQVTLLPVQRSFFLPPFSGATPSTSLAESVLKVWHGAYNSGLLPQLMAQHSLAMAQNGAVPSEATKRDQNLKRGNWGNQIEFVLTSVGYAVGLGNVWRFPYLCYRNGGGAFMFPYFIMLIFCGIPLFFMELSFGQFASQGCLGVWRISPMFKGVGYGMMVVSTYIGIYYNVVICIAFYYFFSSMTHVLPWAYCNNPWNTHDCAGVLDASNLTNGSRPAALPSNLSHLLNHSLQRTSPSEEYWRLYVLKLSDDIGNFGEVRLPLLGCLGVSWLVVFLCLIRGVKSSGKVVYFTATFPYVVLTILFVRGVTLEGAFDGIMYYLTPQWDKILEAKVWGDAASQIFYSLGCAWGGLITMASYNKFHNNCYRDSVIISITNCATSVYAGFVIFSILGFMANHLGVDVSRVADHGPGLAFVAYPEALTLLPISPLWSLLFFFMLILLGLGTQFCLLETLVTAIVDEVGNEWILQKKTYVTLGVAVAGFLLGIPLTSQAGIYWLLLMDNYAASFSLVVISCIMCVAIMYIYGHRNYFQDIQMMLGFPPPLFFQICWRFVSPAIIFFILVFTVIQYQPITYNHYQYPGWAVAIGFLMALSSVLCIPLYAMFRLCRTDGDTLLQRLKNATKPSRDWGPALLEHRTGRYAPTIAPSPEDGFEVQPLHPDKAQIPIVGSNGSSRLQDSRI
Details: not given
With `Cn1cnc(S(=O)(=O)N2C[C@@H](Nc3cccc(F)n3)[C@H](c3ccc(F)cc3)C2)c1` (relative stereo) [Example 238, 6-fluoro-N-{trans-4-(4-fluorophenyl)-1-[(1-methyl-1H-imidazol-4-yl)sulfonyl]pyrrolidin-3-yl}pyridin-2-amine], the inhibitory constant (Ki) (usually a measure of affinity in units of concentration, obtained from inhibition or displacement) was not above 10 µM.

For the compound `Cn1cnc(S(=O)(=O)N2C[C@@H](C(=O)c3ccc(Cl)c(F)c3)[C@H](c3ccc(F)cc3)C2)c1` (relative stereo) [Example 319, (4-Chloro-3-fluorophenyl){trans-4-(4-fluorophenyl)-1-[(1-methyl-1H-imidazol-4-yl)sulfonyl]pyrrolidin-3-yl}methanone], the Ki is not above 0.1 µM.

Turning to `Cn1cnc(S(=O)(=O)N2C[C@@H](C(=O)c3cc(Cl)cc(Cl)c3)[C@H](c3ccc(F)cc3)C2)c1` (relative stereo) [Example 360, (3,5-Dichlorophenyl) {trans-4-(4-fluorophenyl)-1-[(1-methyl-1H-imidazol-4-yl)sulfonyl]pyrrolidin-3-yl}methanone], the Ki was not above 0.1 µM.

With `Cn1cnc(S(=O)(=O)N2C[C@@H](Nc3cc(C(F)(F)F)ncn3)[C@H](C3CCCO3)C2)c1` (relative stereo) [Example 853, N-[Trans-1-[(1-methyl-1H-imidazol-4-yl)sulfonyl]-4-(tetrahydrofuran-2-yl)pyrrolidin-3-yl]-6-(trifluoromethyl)pyrimidin-4-amine], the Ki is not above 1 µM.

Staying with this assay, now noted: radioligand binding, human GlyT1c transporter-expressing CHO cell membranes.
With `Cn1cnc(S(=O)(=O)N2C[C@@H]([C@@H]3CCCOC3)[C@H](Nc3cccc(OCC(F)(F)F)c3)C2)c1` (mixture of isomers) [Example 785, trans-1-[(1-methyl-1H-imidazol-4-yl)sulfonyl]-4-[(3S)-tetrahydro-2H-pyran-3-yl]-N-[3-(2,2,2-trifluoroethoxy)phenyl]pyrrolidin-3-amine], the Ki is not above 0.1 µM.

Regarding `Cn1cnc(S(=O)(=O)N2C[C@@H](C(=O)c3ccc(F)cc3)[C@H](c3ccc(F)cc3)C2)c1` (relative stereo) [Example 303, (4-fluorophenyl){trans-4-(4-fluorophenyl)-1-[(1-methyl-1H-imidazol-4-yl)sulfonyl]pyrrolidin-3-yl}methasone], the Ki was not above 10 µM.

As to `Cn1cnc(S(=O)(=O)N2C[C@@H](c3ccccc3)[C@](C)(NCc3ccc(Cl)cc3)C2)c1` (relative stereo) [Example 354, Trans-N-(4-chlorobenzyl)-3-methyl-1-[(1-methyl-1H-imidazol-4-yl)sulfonyl]-4-phenylpyrrolidin-3-amine], the inhibition constant Ki is not above 1 µM.

Take `Cn1cnc(S(=O)(=O)N2C[C@@H](c3ccccc3)[C@](C)(NCc3ccc(C(F)(F)F)cc3)C2)c1` (relative stereo) [Example 355, Trans-3-methyl-1-[(1-methyl-1H-imidazol-4-yl)sulfonyl]-4-phenyl-N-[4-(trifluoromethyl)benzyl]pyrrolidin-3-amine]: the Ki was not above 1 µM.

With `Cn1cnc(S(=O)(=O)N2C[C@@H](NC(=O)c3ccc(C(F)(F)F)cc3)[C@@](O)(c3ccccc3)C2)c1` (relative stereo) [Example 538, N-{Trans-4-hydroxy-1-[(1-methyl-1H-imidazol-4-yl)sulfonyl]-4-phenylpyrrolidin-3-yl}-4-(trifluoromethyl)benzamide], the inhibition constant Ki is not above 10 µM.

For `Cn1cnc(S(=O)(=O)N2CC(c3ccccc3)N(Cc3cccc(Cl)c3)C2=O)c1` (stereo not shown) [Example 343, 3-(3-chlorobenzyl)-1-[(1-methyl-1H-imidazol-4-yl)sulfonyl]-4-phenylimidazolidin-2-one], the Ki was not above 10 µM.

For the compound `Cn1cnc(S(=O)(=O)N2C[C@H](Nc3ccc(F)c(Cl)c3)[C@@H](c3ccc(F)cc3)C2)c1` [Example 352, (3R,4S)—N-(3-chloro-4-fluorophenyl)-4-(4-fluorophenyl)-1-[(1-methyl-1H-imidazol-4-yl)sulfonyl]pyrrolidin-3-amine], the Ki was not above 0.01 µM.

`Cn1cnc(S(=O)(=O)N2C[C@H](Nc3cccc(C#N)c3)[C@@H](c3ccc(F)cc3)C2)c1` [Example 380, 3-({(3R,4S)-4-(4-fluorophenyl)-1-[(1-methyl-1H-imidazol-4-yl)sulfonyl]pyrrolidin-3-yl}-amino)benzonitrile]: the inhibition constant Ki is not above 0.1 µM.

Turning to `Cn1cnc(S(=O)(=O)N2CC(c3ccc(F)cc3)C(O)(Cc3ccccc3)C2)c1` (stereo not shown) [Example 382, 3-benzyl-4-(4-fluorophenyl)-1-[(1-methyl-1H-imidazol-4-yl)sulfonyl]pyrrolidin-3-ol], the Ki was not above 0.1 µM.

`Cn1cnc(S(=O)(=O)N2CC(Nc3nnccc3C(F)(F)F)C(c3ccc(F)cc3)C2)c1` (stereo not shown) [Example 384, N-{4-(4-fluorophenyl)-1-[(1-methyl-1H-imidazol-4-yl)sulfonyl]pyrrolidin-3-yl}-4-(trifluoromethyl)pyridazin-3-amine]: the inhibitory constant (Ki) was not above 10 µM.

Consider `Cn1cnc(S(=O)(=O)N2C[C@@H](Nc3cccc(C#N)c3)[C@H](c3ccc(F)cc3)C2)c1` [Example 389, 3-({(3S,4R)-4-(4-fluorophenyl)-1-[(1-methyl-1H-imidazol-4-yl)sulfonyl]pyrrolidin-3-yl}amino)benzonitrile], for which the Ki is not above 10 µM.

Regarding `Cn1cnc(S(=O)(=O)N2C[C@H](NCc3ccc(C(F)(F)F)cc3)[C@@H](c3ccccc3)C2)c1` [Example 398, (3R,4S)-1-[(1-methyl-1H-imidazol-4-yl)sulfonyl]-4-phenyl-N-[4-(trifluoromethyl)benzyl]pyrrolidin-3-amine], the inhibition constant (Ki) is not above 0.01 µM.

For the compound `Cn1cnc(S(=O)(=O)N2C[C@H](Nc3cnc(C4CCC4)cn3)[C@@H](c3ccccc3)C2)c1` [Example 411, 5-cyclobutyl-N-{(3R,4S)-1-[(1-methyl-1H-imidazol-4-yl)sulfonyl]-4-phenylpyrrolidin-3-yl}pyrazin-2-amine], the Ki was not above 10 µM.

As for `Cn1cnc(S(=O)(=O)N2C[C@H](NC(=O)c3cnc(C(F)(F)F)cn3)[C@@H](c3ccccc3)C2)c1` [Example 414, N-{(3R,4S)-1-[(1-methyl-1H-imidazol-4-yl)sulfonyl]-4-phenylpyrrolidin-3-yl}-5-(trifluoromethyl)pyrazine-2-carboxamide], the Ki was not above 10 µM.

For `Cn1cnc(S(=O)(=O)N2C[C@H](Nc3ccc(F)c(Cl)c3)[C@@H](c3ccccc3)C2)c1` [Example 417, (3R,4S)—N-(3-chloro-4-fluorophenyl)-1-[(1-methyl-1H-imidazol-4-yl)sulfonyl]-4-phenylpyrrolidin-3-amine], the Ki was not above 0.01 µM.

With `Cn1cnc(S(=O)(=O)N2C[C@H](NC(=O)c3ccc(Cl)nn3)[C@@H](c3ccccc3)C2)c1` [Example 419, 6-chloro-N-{(3R,4S)-1-[(1-methyl-1H-imidazol-4-yl)sulfonyl]-4-phenylpyrrolidin-3-yl}pyridazine-3-carboxamide], the Ki is not below 10 µM.

For the compound `Cn1cnc(S(=O)(=O)N2C[C@H](Nc3ccnc(N4CCOCC4)n3)[C@@H](c3ccccc3)C2)c1` [Example 420, N-{(3R,4S)-1-[(1-methyl-1H-imidazol-4-yl)sulfonyl]-4-phenylpyrrolidin-3-yl}-2-(morpholin-4-yl)pyrimidin-4-amine], the inhibition constant Ki was not above 10 µM.

In the case of `CCCc1ccc(CN[C@H]2CN(S(=O)(=O)c3cn(C)cn3)C[C@@H]2c2ccccc2)o1` [Example 428, (3R,4S)-1-[(1-methyl-1H-imidazol-4-yl)sulfonyl]-4-phenyl-N-[(5-propylfuran-2-yl)methyl]pyrrolidin-3-amine], the inhibition constant Ki was not above 0.1 µM.

`CC(C)N1CCC(CN[C@H]2CN(S(=O)(=O)c3cn(C)cn3)C[C@@H]2c2ccccc2)CC1` [Example 459, (3R,4S)-1-[(1-methyl-1H-imidazol-4-yl)sulfonyl]-4-phenyl-N-{[1-(propan-2-yl)piperidin-4-yl]methyl}pyrrolidin-3-amine]: the Ki was not above 10 µM.

As to `Cn1cnc(S(=O)(=O)N2C[C@H](NCc3nc(-c4ccc(F)cc4)cs3)[C@@H](c3ccccc3)C2)c1` [Example 460, (3R,4S)—N-{[4-(4-fluorophenyl)-1,3-thiazol-2-yl]methyl}-1-[(1-methyl-1H-imidazol-4-yl)sulfonyl]-4-phenylpyrrolidin-3-amine], the Ki was not above 10 µM.

On to `Cc1ccc(CN[C@H]2CN(S(=O)(=O)c3cn(C)cn3)C[C@@H]2c2ccccc2)s1` [Example 462, (3R,4S)-1-[(1-methyl-1H-imidazol-4-yl)sulfonyl]-N-[(5-methylthiophen-2-yl)methyl]-4-phenylpyrrolidin-3-amine], for which the Ki is not above 0.1 µM.

For the compound `Cn1cc(S(=O)(=O)N2CC(Nc3ccc(F)c(F)c3)C(c3ccccc3)C2)c(C(F)(F)F)n1` (stereo not shown) [Example 476, N-(3,4-difluorophenyl)-1-{[1-methyl-3-(trifluoromethyl)-1H-pyrazol-4-yl]sulfonyl}-4-phenylpyrrolidin-3-amine], the Ki was not above 10 µM.

For the compound `CC1(C)C(=O)Nc2ccc(S(=O)(=O)N3CC(Nc4ccc(F)c(F)c4)C(c4ccccc4)C3)cc21` (stereo not shown) [Example 478, 5-({3-[(3,4-difluorophenyl)amino]-4-phenylpyrrolidin-1-yl}sulfonyl)-3,3-dimethyl-1,3-dihydro-2H-indol-2-one], the Ki is not above 10 µM.

As to `Cc1nn(C2CCCC2)cc1S(=O)(=O)N1CC(Nc2ccc(F)c(F)c2)C(c2ccccc2)C1` (stereo not shown) [Example 479, 1-[(1-cyclopentyl-3-methyl-1H-pyrazol-4-yl)sulfonyl]-N-(3,4-difluorophenyl)-4-phenylpyrrolidin-3-amine], the inhibitory constant (Ki) is more than 10 µM.

On to `Cc1cc(S(=O)(=O)N2CC(Nc3ccc(F)c(F)c3)C(c3ccccc3)C2)n(C)n1` (stereo not shown) [Example 482, N-(3,4-difluorophenyl)-1-[(1,3-dimethyl-1H-pyrazol-5-yl)sulfonyl]-4-phenylpyrrolidin-3-amine], for which the Ki was not above 10 µM.

As to `Cc1cc(S(=O)(=O)N2CC(Nc3ccc(F)c(F)c3)C(c3ccccc3)C2)c(C)o1` (stereo not shown) [Example 488, N-(3,4-difluorophenyl)-1-[(2,5-dimethylfuran-3-yl)sulfonyl]-4-phenylpyrrolidin-3-amine], the Ki is not above 10 µM.

As for `COC(=O)c1sccc1S(=O)(=O)N1CC(Nc2ccc(F)c(F)c2)C(c2ccccc2)C1` (stereo not shown) [Example 489, methyl 3-({3-[(3,4-difluorophenyl)amino]-4-phenylpyrrolidin-1-yl}sulfonyl)thiophene-2-carboxylate], the inhibitory constant (Ki) was not above 10 µM.
